Structures can show the parent of a compound that is named as a salt.
Assays:
[1] = cited from earlier work
[2] = Deutsch et al. 1989; cited from earlier work
cell culture = details: Magri and Kingston 1988; cited from earlier work
[3] = in vivo conditions; cited from earlier work
[4] = Magri and Kingston 1988; cited from earlier work
[5] = Magri and Kingston; cited from earlier work
[6] = cited from earlier work; remark: listed apart in the source
[7] = Biological testing of 2'-[(3-sulfo-1-oxopropyl)oxy]taxol sodium salt
[8] = Water solubility by partition between 1-octanol and water, relative to taxol; details: for times more water soluble than taxol / solubilities greater than taxol: 1-octanol/water partition; for water solubility (in words): versus taxol or the other derivatives; for solubilities greater than taxol: Table 9 discussion
Protocol: Water solubilities for all compounds were determined by the partition coefficient between 1-octanol and water. Octanol saturated with distilled water and distilled water saturated with octanol were used for the solubility determinations.
Taxol's water solubility was determined by dissolving 1.6 mg of taxol in 10 ml of distilled water saturated with 1-octanol in a 60 ml separatory funnel, and 10 ml of 1-octanol saturated with distilled water was then added. The funnel was shaken, and allowed to stand for about 30 minutes until the organic and aqueous phases separated. UV absorption measurements at 228 nm were made of the aqueous layer and/or octanol layer, with the octanol layer being diluted 5 times before measurement.

P-388 = details: compared with taxol; cited from earlier work
[9] = Stability of 2'-γ-aminobutyryltaxol formate (proton NMR and TLC); format: physicochemical; details: after a few hours
Excerpt: 2'-γ-aminobutyryltaxol formate was synthesized by coupling taxol with N-carbobenzyloxy (CBZ) -γ-aminobutyric acid followed by deprotection of the amine. Taxol was reacted with N-CBZ-γ- aminobutyric acid using dicyclohexyl-carbodiimide (DCC) as the coupling agent. The resulting 2'-NCBZ-γ-aminobutyryl taxol was produced in 75% yield after purification via preparative TLC with silica gel and 3/2 hexane/ethyl acetate. […] Deprotection of the 2'-N-CBZ-γ-aminobutyryltaxol was effected using 5% Pd/C as a catalyst and formic acid as a hydrogen source. […] NMR confirmed the synthesis of the 2'-γ-aminobutyryl taxol formate. […] This instability precluded further consideration of 2'-γ-amino-butyryltaxol formate as a prodrug form of taxol.

[10] = Aqueous solubility (statements in words); format: physicochemical; details: versus the neutral form
[11] = tested on: acute leukemia and melanoma; details: preliminary studies; cited from earlier work
tubulin = details: cited from earlier work
[12] = tested on: drug-refractory ovarian cancer; details: McGuire et al. 1989; cited from earlier work
several tumor systems = details: background statement; cited from earlier work
[13] = cited from earlier work; remark: listed apart in the source

CC(=O)O[C@H]1C(=O)[C@@]2(C)[C@H]([C@H](OC(=O)c3ccccc3)[C@]3(O)C[C@H](OC(=O)[C@H](OC(=O)CCCC(=O)NCCCN(C)C)[C@@H](NC(=O)c4ccccc4)c4ccccc4)C(C)=C1C3(C)C)[C@]1(OC(C)=O)CO[C@@H]1C[C@@H]2O
solubility ([1]; Deutsch et al. 1989): good solubility
antitumor activity [2]: good solubility and bioactivity

CC(=O)O[C@H]1C(=O)[C@]2(C)[C@@H](OC(C)=O)C[C@H]3OC[C@@]3(OC(C)=O)[C@H]2[C@H](OC(=O)c2ccccc2)[C@]2(O)C[C@H](OC(=O)[C@H](OC(C)=O)[C@@H](NC(=O)c3ccccc3)c3ccccc3)C(C)=C1C2(C)C [2',7-diacetyltaxol]
activity in a cell culture bioassay (cell culture): both showed activity in a cell culture bioassay
hydrolysis of acyl substituents at the 2' position [3]: readily hydrolyzed under in vivo conditions

CC(=O)O[C@H]1C(=O)[C@@]2(C)[C@H]([C@H](OC(=O)c3ccccc3)[C@]3(O)C[C@H](OC(=O)[C@H](O[Si](C)(C)C(C)(C)C)[C@@H](NC(=O)c4ccccc4)c4ccccc4)C(C)=C1C3(C)C)[C@]1(OC(C)=O)CO[C@@H]1C[C@@H]2O [2'-(t-butyldimethylsilyl) taxol]
biological activity [4]: essentially inactive

CC(=O)O[C@H]1C(=O)[C@@]2(C)[C@H]([C@H](OC(=O)c3ccccc3)[C@]3(O)C[C@H](OC(=O)[C@H](OC(=O)CCN)[C@@H](NC(=O)c4ccccc4)c4ccccc4)C(C)=C1C3(C)C)[C@]1(OC(C)=O)CO[C@@H]1C[C@@H]2O [2'-(β-alanyl)taxol]
activity in vivo and in vitro [5]: active in vivo and in vitro
stability ([6]; Magri and Kingston): unstable

CC(=O)O[C@H]1C(=O)[C@@]2(C)[C@H]([C@H](OC(=O)c3ccccc3)[C@]3(O)C[C@H](OC(=O)[C@H](OC(=O)CCS(=O)(=O)O)[C@@H](NC(=O)c4ccccc4)c4ccccc4)C(C)=C1C3(C)C)[C@]1(OC(C)=O)CO[C@@H]1C[C@@H]2O [2'-[(3-sulfo-1-oxopropyl)oxy]taxol sodium salt]
bioactivity [7]: bioactive
times more water soluble than taxol [8]: 210 times
water solubility (in words) ([8]; listed as 2'-[(3-sulfo-l- oxopropyl)oxy]taxol sodium salt, sodium salt): improved water solubility
water solubility (in words) ([8]; listed as 2'-acryloyltaxol derivative, sodium salt): highest water solubility

CC(=O)O[C@H]1C(=O)[C@@]2(C)[C@H]([C@H](OC(=O)c3ccccc3)[C@]3(O)C[C@H](OC(=O)[C@H](OC(C)=O)[C@@H](NC(=O)c4ccccc4)c4ccccc4)C(C)=C1C3(C)C)[C@]1(OC(C)=O)CO[C@@H]1C[C@@H]2O [2'-acetyltaxol]
activity in a cell culture bioassay (cell culture): both showed activity in a cell culture bioassay
hydrolysis of acyl substituents at the 2' position [3]: readily hydrolyzed under in vivo conditions

CC(=O)O[C@H]1C(=O)[C@@]2(C)[C@H]([C@H](OC(=O)c3ccccc3)[C@]3(O)C[C@H](OC(=O)[C@H](OC(=O)CCC(=O)O)[C@@H](NC(=O)c4ccccc4)c4ccccc4)C(C)=C1C3(C)C)[C@]1(OC(C)=O)CO[C@@H]1C[C@@H]2O [2'-succinyltaxol]
P-388 in vivo activity (P-388): much diminished P-388 in vivo activity as compared with taxol

CC(=O)O[C@H]1C(=O)[C@@]2(C)[C@H]([C@H](OC(=O)c3ccccc3)[C@]3(O)C[C@H](OC(=O)[C@H](OC(=O)CCC(=O)NCCS(=O)(=O)O)[C@@H](NC(=O)c4ccccc4)c4ccccc4)C(C)=C1C3(C)C)[C@]1(OC(C)=O)CO[C@@H]1C[C@@H]2O [2'-{[4-((2-sulfoethyl)amino)-1,4-dioxo-butyl]oxy}taxol sodium salt]
times more water soluble than taxol [8]: 191 times
solubilities greater than taxol [8]: more than 100 times
water solubility (in words) [8]: much greater water solubility than the 3-amino-1-sulfopropionic acid derivative of 2'-succinyltaxol

CC(=O)O[C@H]1C(=O)[C@@]2(C)[C@H]([C@H](OC(=O)c3ccccc3)[C@]3(O)C[C@H](OC(=O)[C@H](OC(=O)CCC(=O)NCCCS(=O)(=O)O)[C@@H](NC(=O)c4ccccc4)c4ccccc4)C(C)=C1C3(C)C)[C@]1(OC(C)=O)CO[C@@H]1C[C@@H]2O [2'-{[4-((3-sulfopropyl)-amino)-1,4-dioxobutyl]oxy}taxol sodium salt]
times more water soluble than taxol [8]: 118 times
solubilities greater than taxol [8]: more than 100 times

CC(=O)O[C@H]1C(=O)[C@@]2(C)[C@H]([C@H](OC(=O)c3ccccc3)[C@]3(O)C[C@H](OC(=O)[C@H](OC(=O)CCCN)[C@@H](NC(=O)c4ccccc4)c4ccccc4)C(C)=C1C3(C)C)[C@]1(OC(C)=O)CO[C@@H]1C[C@@H]2O [2'-γ-aminobutyryltaxol formate, 2'-γ-amino-butyryltaxol formate]
stability (proton NMR and TLC) [9]: decomposed back to taxol
stability in methanol solution ([9]; methanol solution): unstable in methanol solution and decomposed back to taxol after a few hours
water solubility of formate salt [10]: more water soluble than the neutral form

CC(=O)O[C@H]1C(=O)[C@@]2(C)[C@H]([C@H](OC(=O)c3ccccc3)[C@]3(O)C[C@H](OC(=O)[C@H](O)[C@@H](NC(=O)c4ccccc4)c4ccccc4)C(C)=C1C3(C)C)[C@]1(OC(C)=O)CO[C@@H]1C[C@@H]2O [Taxol, taxol]
water solubility of taxol ([1]; background statement): low water solubility
activity in acute leukemia and melanoma [11]: marginal activity in acute leukemia and melanoma
effect on microtubule formation (tubulin): promotes formation of the microtubules
effect on depolymerization of tubulin (tubulin; mitotic spindle microtubules): prevents depolymerization of the tubulin
activity against drug-refractory ovarian cancer [12]: active agent against drug-refractory ovarian cancer
stability in base ([6]; base): readily hydrolyzed in base
activity in tumor systems (several tumor systems): has shown activity in several tumor systems
toxic effects in phase 1 clinical trials [13]: did not show excessive toxic effects
Relative Solubility (water solubility relative to taxol) [8]: 1

CC[C@]1(O)C[C@@H]2CN(CCc3c([nH]c4ccccc34)[C@@](C(=O)OC)(c3cc4c(cc3OC)N(C)[C@H]3[C@@](O)(C(=O)OC)[C@H](OC(C)=O)[C@]5(CC)C=CCN6CC[C@]43[C@@H]65)C2)C1 [vinblastine]
effect on microtubule formation (tubulin): prevent microtubule formation
